What was measured:
[1] = molecular target: T1, Recombinant full-length human IDO1 (Homo sapiens, UniProt P14902); assay: IDO1 enzymatic assay (NFK quantified by LCMS); type: biochemical; conditions: 2 nM enzyme, 5 μM L-tryptophan, pH6.5, 30 minutes pre-incubation at RT; mean values when measured multiple times; read-out: hIDO activity (IC50 in nM)
T1 construct: Recombinant full-length human IDO1 with a N-terminal hexahistidine tag; hexahistidine (His6) (N); made in house; host or cells: E. coli
Procedure, shortened: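 IC50 comes from four-parameter logistic fits of duplicate data, with NFK quantified by LCMS and normalized to L-Trp-(indole-d5). Compound (0.5 nM–10 μM) was preincubated 30 min at RT with 2 nM E. coli-expressed IDO1 before a 30 min reaction with 5 μM tryptophan in pH 6.5 buffer containing ascorbate and methylene blue.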

[2] = molecular target: T2, Recombinant human TDO comprising amino acids 19-407 (Homo sapiens, UniProt P48775); assay: TDO2 enzymatic assay (NFK quantified by LCMS); type: biochemical; conditions: 15 nM enzyme, 200 μM L-tryptophan, pH7, 30 minutes pre-incubation at RT; mean values when measured multiple times; read-out: hTDO activity (IC50 in nM)
T2 construct: Recombinant human TDO comprising amino acids 19-407 with a N-terminal hexahistidine tag; hexahistidine (His6) (N); made in house; host or cells: E. coli
Procedure, shortened: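 NFK formed over 30 min at RT from 200 μM L-tryptophan was measured by LCMS, normalized to d5-tryptophan, after compound (0.5 nM–10 μM, duplicates, 0.6% DMSO) was preincubated 30 min with 15 nM recombinant His-tagged TDO 19-407 in phosphate buffer pH 7. IC50 from four-parameter logistic fit; repeats averaged.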

T2 sequence (P48775 19-406 limits assumed): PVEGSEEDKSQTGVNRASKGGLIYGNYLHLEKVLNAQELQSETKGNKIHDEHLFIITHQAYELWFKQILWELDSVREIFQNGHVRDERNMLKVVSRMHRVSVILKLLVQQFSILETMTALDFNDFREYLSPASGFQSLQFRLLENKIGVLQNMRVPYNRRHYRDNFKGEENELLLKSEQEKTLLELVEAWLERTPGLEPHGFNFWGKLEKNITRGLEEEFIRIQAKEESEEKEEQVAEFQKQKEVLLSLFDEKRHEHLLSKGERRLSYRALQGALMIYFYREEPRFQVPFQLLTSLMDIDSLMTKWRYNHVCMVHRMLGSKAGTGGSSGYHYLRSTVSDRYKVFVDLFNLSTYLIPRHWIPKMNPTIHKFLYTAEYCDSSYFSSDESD
T1 sequence (P14902 whole entry): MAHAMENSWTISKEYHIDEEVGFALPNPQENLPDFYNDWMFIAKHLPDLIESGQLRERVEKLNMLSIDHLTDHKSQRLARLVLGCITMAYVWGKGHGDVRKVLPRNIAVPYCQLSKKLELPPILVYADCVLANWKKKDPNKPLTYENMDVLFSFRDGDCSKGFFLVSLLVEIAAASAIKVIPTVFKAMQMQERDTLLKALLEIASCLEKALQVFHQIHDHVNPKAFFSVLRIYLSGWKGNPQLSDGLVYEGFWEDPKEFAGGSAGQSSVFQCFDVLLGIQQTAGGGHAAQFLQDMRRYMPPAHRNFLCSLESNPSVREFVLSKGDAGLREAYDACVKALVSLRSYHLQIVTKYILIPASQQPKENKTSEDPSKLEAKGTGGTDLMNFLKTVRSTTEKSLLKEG

SMILES | IC50 [1] [nM] | IC50 [2] [nM]
OC(c1ccc(-c2cncc3ccccc23)s1)c1c(C2CC2)sc2cncn12 (racemic) [Example 177, rac-(2-Cyclopropyl-imidazo[5,1-b]thiazol-3-yl)-(5-isoquinolin-4-yl-thiophen-2-yl)-methanol] | 138 | 8620
OC(c1cn(-c2ccccc2)cn1)c1c(C2CC2)sc2cncn12 (racemic) [Example 178, rac-(2-Cyclopropyl-imidazo[5,1-b]thiazol-3-yl)-(1-phenyl-1H-imidazol-4-yl)-methanol] | 515 | > 10200
O=c1[nH]c2ccc(-n3cc(C(O)c4c(C5CC5)sc5cncn45)nn3)cc2o1 (racemic) [Example 179, rac-6-{4-[(2-Cyclopropyl-imidazo[5,1-b]thiazol-3-yl)-hydroxy-methyl]-[1,2,3]triazol-1-yl}-3H-benzooxazol-2-one] | 5.36 | > 10200
CC(C)(C)OC(=O)Nc1ccc(-n2cc(C(O)c3c(C4CC4)sc4cncn34)nn2)cc1 (racemic) [Example 180, rac-(4-{4-[(2-Cyclopropyl-imidazo[5,1-b]thiazol-3-yl)-hydroxy-methyl]-[1,2,3]triazol-1-yl}-phenyl)-carbamic acid tert-butyl ester] | 33.6 | > 10200
CCc1sc2cncn2c1C(O)c1cn(-c2ccc3[nH]c(=O)oc3c2)nn1 (racemic) [Example 181, rac-6-{4-[(2-Ethyl-imidazo[5,1-b]thiazol-3-yl)-hydroxy-methyl]-[1,2,3]triazol-1-yl}-3H-benzooxazol-2-one] | 7.86 | 4330
CNC(=O)c1ccc(-n2cc(C(O)c3c(C4CC4)sc4cncn34)nn2)cc1 (racemic) [Example 182, rac-4-{4-[(2-Cyclopropyl-imidazo[5,1-b]thiazol-3-yl)-hydroxy-methyl]-[1,2,3]triazol-1-yl}-N-methyl-benzamide] | 26 | > 10200
CCNC(=O)Nc1ccc(-n2cc(C(O)c3c(C4CC4)sc4cncn34)nn2)cc1OC (racemic) [Example 183, rac-1-(4-{4-[(2-Cyclopropyl-imidazo[5,1-b]thiazol-3-yl)-hydroxy-methyl]-[1,2,3]triazol-1-yl}-2-methoxy-phenyl)-3-ethyl-urea] | 15.5 | > 10200
O=C(NCCCO)c1ccc(-n2cc(C(O)c3c(C4CC4)sc4cncn34)nn2)cc1 (racemic) [Example 184, rac-4-{4-[(2-Cyclopropyl-imidazo[5,1-b]thiazol-3-yl)-hydroxy-methyl]-[1,2,3]triazol-1-yl}-N-(3-hydroxy-propyl)-benzamide] | 14.5 | > 10200
NC(=O)c1ccc(-n2cc(C(O)c3c(C4CC4)sc4cncn34)nn2)cc1 (racemic) [Example 185, rac-4-{4-[(2-Cyclopropyl-imidazo[5,1-b]thiazol-3-yl)-hydroxy-methyl]-[1,2,3]triazol-1-yl}-benzamide] | 14.9 | > 10200
O=C(NCCO)c1ccc(-n2cc(C(O)c3c(C4CC4)sc4cncn34)nn2)cc1 (racemic) [Example 186, rac-4-{4-[(2-Cyclopropyl-imidazo[5,1-b]thiazol-3-yl)-hydroxy-methyl]-[1,2,3]triazol-1-yl}-N-(2-hydroxy-ethyl)-benzamide] | 17.3 | > 10200
CC(C)(C)C(=O)Nc1ccc(-n2cc(C(O)c3c(C4CC4)sc4cncn34)nn2)cc1 (racemic) [Example 187, rac-N-(4-{4-[(2-Cyclopropyl-imidazo[5,1-b]thiazol-3-yl)-hydroxy-methyl]-[1,2,3]triazol-1-yl}-phenyl)-2,2-dimethyl-propionamide] | 13.7 | > 10200
CCCCNC(=O)Nc1ccc(-n2cc(C(O)c3c(C4CC4)sc4cncn34)nn2)cc1 (racemic) [Example 188, rac-1-Butyl-3-(4-{4-[(2-cyclopropyl-imidazo[5,1-b]thiazol-3-yl)-hydroxy-methyl]-[1,2,3]triazol-1-yl}-phenyl)-urea] | 37.8 | 8320
O=C(Nc1ccc(-n2cc(C(O)c3c(C4CC4)sc4cncn34)nn2)cc1)c1ccccc1 (racemic) [Example 189, rac-N-(4-{4-[(2-Cyclopropyl-imidazo[5,1-b]thiazol-3-yl)-hydroxy-methyl]-[1,2,3]triazol-1-yl}-phenyl)-benzamide] | 30.6 | > 10200
O=C(NCc1ccco1)c1ccc(-n2cc(C(O)c3c(C4CC4)sc4cncn34)nn2)cc1 (racemic) [Example 190, rac-4-{4-[(2-Cyclopropyl-imidazo[5,1-b]thiazol-3-yl)-hydroxy-methyl]-[1,2,3]triazol-1-yl}-N-furan-2-ylmethyl-benzamide] | 8.8 | > 10200
CCN(C)C(=O)c1ccc(-n2cc(C(O)c3c(C4CC4)sc4cncn34)nn2)cc1 (racemic) [Example 191, rac-4-{4-[(2-Cyclopropyl-imidazo[5,1-b]thiazol-3-yl)-hydroxy-methyl]-[1,2,3]triazol-1-yl}-N-ethyl-N-methyl-benzamide] | 109 | > 10200
CC(C)C(=O)Nc1ccc(-n2cc(C(O)c3c(C4CC4)sc4cncn34)nn2)cc1 (racemic) [Example 192, rac-N-(4-{4-[(2-Cyclopropyl-imidazo[5,1-b]thiazol-3-yl)-hydroxy-methyl]-[1,2,3]triazol-1-yl}-phenyl)-isobutyramide] | 13.5 | > 10200
C=CCNC(=O)c1ccc(-n2cc(C(O)c3c(C4CC4)sc4cncn34)nn2)cc1 (racemic) [Example 193, rac-N-Allyl-4-{4-[(2-cyclopropyl-imidazo[5,1-b]thiazol-3-yl)-hydroxy-methyl]-[1,2,3]triazol-1-yl}-benzamide] | 9.02 | > 10200
O=c1[nH]c2ccc(-n3cc(C(O)c4c(C5CC5)sc5cncn45)nn3)cc2[nH]1 (racemic) [Example 194, rac-5-{4-[(2-Cyclopropyl-imidazo[5,1-b]thiazol-3-yl)-hydroxy-methyl]-[1,2,3]triazol-1-yl}-1,3-dihydro-benzoimidazol-2-one] | 70.4 | > 10200
CN(C)C(=O)c1ccc(-n2cc(C(O)c3c(C4CC4)sc4cncn34)nn2)cc1 (racemic) [Example 195, rac-4-{4-[(2-Cyclopropyl-imidazo[5,1-b]thiazol-3-yl)-hydroxy-methyl]-[1,2,3]triazol-1-yl}-N,N-dimethyl-benzamide] | 145 | > 10200
CCc1sc2cncn2c1C(O)c1cn(-c2ccc(C(=O)NCCOC)cc2)nn1 (racemic) [Example 196, rac-4-{4-[(2-Ethyl-imidazo[5,1-b]thiazol-3-yl)-hydroxy-methyl]-[1,2,3]triazol-1-yl}-N-(2-methoxy-ethyl)-benzamide] | 17.1 | > 10200
COc1cc(C#N)cc(-n2cc(C(O)c3c(C4CC4)sc4cncn34)nn2)c1 (racemic) [Example 197, rac-3-{4-[(2-Cyclopropyl-imidazo[5,1-b]thiazol-3-yl)-hydroxy-methyl]-[1,2,3]triazol-1-yl}-5-methoxy-benzonitrile] | 52.4 | > 10200
COc1cc(-n2cc(C(O)c3c(C4CC4)sc4cncn34)nn2)cc(C#N)c1OC (racemic) [Example 198, rac-5-{4-[(2-Cyclopropyl-imidazo[5,1-b]thiazol-3-yl)-hydroxy-methyl]-[1,2,3]triazol-1-yl}-2,3-dimethoxy-benzonitrile] | 52.4 | > 10200
N#Cc1cc(-n2cc(C(O)c3c(C4CC4)sc4cncn34)nn2)ccc1OC(F)(F)F (racemic) [Example 199, rac-5-{4-[(2-Cyclopropyl-imidazo[5,1-b]thiazol-3-yl)-hydroxy-methyl]-[1,2,3]triazol-1-yl}-2-trifluoromethoxy-benzonitrile] | 73.1 | > 10200
OC(c1cn(-c2nccc(Br)c2Cl)nn1)c1c(C2CC2)sc2cncn12 (racemic) [Example 200, rac-[1-(4-Bromo-3-chloro-pyridin-2-yl)-1H-[1,2,3]triazol-4-yl]-(2-cyclopropyl-imidazo[5,1-b]thiazol-3-yl)-methanol] | 55.4 | > 10200
OCCOCCOCCOc1ccc(-n2cc(C(O)c3c(C4CC4)sc4cncn34)nn2)cc1 (racemic) [Example 201, rac-2-{2-[2-(4-{4-[(2-Cyclopropyl-imidazo[5,1-b]thiazol-3-yl)-hydroxy-methyl]-[1,2,3]triazol-1-yl}-phenoxy)-ethoxy]-ethoxy}-ethanol] | 27.8 | > 10200
OC(c1cn(-c2ccc(OCc3ccccn3)cc2)nn1)c1c(C2CC2)sc2cncn12 (racemic) [Example 203, rac-(2-Cyclopropyl-imidazo[5,1-b]thiazol-3-yl)-{1-[4-(pyridin-2-ylmethoxy)-phenyl]-1H-[1,2,3]triazol-4-yl}-methanol] | 1350 | > 10200
CN(C)CCOc1ccc(-n2cc(C(O)c3c(C4CC4)sc4cncn34)nn2)cc1 (racemic) [Example 204, rac-(2-Cyclopropyl-imidazo[5,1-b]thiazol-3-yl)-{1-[4-(2-dimethylamino-ethoxy)-phenyl]-1H-[1,2,3]triazol-4-yl}-methanol] | 292 | > 10200
